Laboratory results published in publication PMC9974468 (Proceedings of the National Academy of Sciences of the …, 2023).

How the values were obtained:
Type in all cases: binding
[1] = biological target: FGFR2K (FGFR2 kinase domain) (Homo sapiens, UniProt P21802, C491A); assay: NMR titration, 1H/[…] HMQC chemical shift perturbation
[2] = biological target: FGFR2K V564E^0Y (FGFR2 kinase domain) (Homo sapiens, UniProt P21802, C491A/V564E/Y466F/Y586L/Y588P/Y656F/Y657F); assay: NMR titration, 1H/[…] methyl HMQC chemical shift perturbation
[3] = biological target: FGFR2K V564I^0Y (FGFR2 kinase domain) (Homo sapiens, UniProt P21802, C491A/V564I/Y466F/Y586L/Y588P/Y656F/Y657F); assay: as above
[4] = biological target: FGFR2K WT^0Y (FGFR2 kinase domain) (Homo sapiens, UniProt P21802, C491A/Y466F/Y586L/Y588P/Y656F/Y657F); assay: as above
Chain of FGFR2K WT^0Y (FGFR2 kinase domain) (P21802 458-768 Y466F/C491A/Y586L/Y588P/Y656F/Y657F): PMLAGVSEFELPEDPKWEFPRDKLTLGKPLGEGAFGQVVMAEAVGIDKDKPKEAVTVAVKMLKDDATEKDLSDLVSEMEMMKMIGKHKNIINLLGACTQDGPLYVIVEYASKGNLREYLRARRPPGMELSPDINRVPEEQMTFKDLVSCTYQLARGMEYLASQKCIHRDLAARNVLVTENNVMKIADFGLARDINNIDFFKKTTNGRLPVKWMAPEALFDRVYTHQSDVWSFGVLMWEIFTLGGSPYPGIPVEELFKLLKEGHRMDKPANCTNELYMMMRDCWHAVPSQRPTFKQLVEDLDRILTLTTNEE

Chain of FGFR2K (FGFR2 kinase domain) (P21802 458-768 C491A): as the sequence (P21802 458-768 Y466F/C491A/Y586L/Y588P/Y656F/Y657F) above, with F9Y, L129Y, P131Y, F199Y, F200Y counted along it
Chain of FGFR2K V564I^0Y (FGFR2 kinase domain) (P21802 458-768 Y466F/C491A/V564I/Y586L/Y588P/Y656F/Y657F): as the sequence (P21802 458-768 Y466F/C491A/Y586L/Y588P/Y656F/Y657F) above, with V107I counted along it
Chain of FGFR2K V564E^0Y (FGFR2 kinase domain) (P21802 458-768 Y466F/C491A/V564E/Y586L/Y588P/Y656F/Y657F): as the sequence (P21802 458-768 Y466F/C491A/Y586L/Y588P/Y656F/Y657F) above, with V107E counted along it

SMILES | Kd [1] [µM] | Kd [2] [µM] | Kd [3] [µM] | Kd [4] [µM]
Nc1ncnc2c1ncn2[C@@H]1O[C@H](COP(=O)(O)OP(=O)(O)CP(=O)(O)O)[C@@H](O)[C@H]1O [AMP-PCP] | 2900 ± 100 |  |  | 
Nc1ncnc2c1ncn2[C@@H]1O[C@H](COP(=O)(O)OP(=O)(O)OP(=O)(O)O)[C@@H](O)[C@H]1O [ATP] |  | 140 ± 20 | 280 ± 30 | 450 ± 70
